Columns and labels:
[1] = test system: Echinochloa oryzoides (Ard.) Fritsch.; experiment: Preemergence weed control under flooded paddy conditions, ECHORC (Watergrass (Calif.)); format: in vivo; conditions: flooded paddy, rated three to four weeks after treatment
[2] = test system: Cyperus iria; experiment: Preemergence weed control under flooded paddy conditions, CYPIR (Rice Flatsedge); format: in vivo; conditions: flooded paddy, rated three to four weeks after treatment
[3] = test system: Cyperus serotinus, Rottb.; experiment: Preemergence weed control under flooded paddy conditions, CYPSE (Flatsedge); format: in vivo; conditions: rated three to four weeks after treatment
[4] = test system: Sagittaria pygmaea, L.; experiment: Preemergence weed control under flooded paddy conditions, SAGPY (Arrowhead (Pygmaea)); format: in vivo; conditions: flooded paddy, rated three to four weeks after treatment
[5] = test system: Oryza sativa, (L.) Tebonnet; experiment: Rice tolerance to post-transplant applications under flooded paddy conditions (Example 187), ORYSAT (Rice, Tebonnet); conditions: rated three to four weeks after treatment
[6] = Rate 0.0320 kg/ha, preemergence weeds
[7] = Rate 0.0620 kg/ha, preemergence weeds
[8] = Rate 0.1250 kg/ha, preemergence weeds
[9] = Rate 0.2500 kg/ha, preemergence weeds
[10] = Rate 0.0320 kg/ha, preemergence
[11] = Rate 0.0620 kg/ha, preemergence
[12] = Rate 0.1250 kg/ha, preemergence
[13] = Rate 0.2500 kg/ha, preemergence
Note: meaning of each grade not given here.

| Compound | herbicidal effect rating, ECHORC [1, 6] | herbicidal effect rating, ECHORC [1, 7] | herbicidal effect rating, ECHORC [1, 8] | herbicidal effect rating, ECHORC [1, 9] | herbicidal effect rating, CYPIR [2, 6] | herbicidal effect rating, CYPIR [2, 7] | herbicidal effect rating, CYPIR [2, 8] | herbicidal effect rating, CYPIR [2, 9] | herbicidal effect rating, CYPSE [3, 6] | herbicidal effect rating, CYPSE [3, 7] | herbicidal effect rating, CYPSE [3, 8] | herbicidal effect rating, CYPSE [3, 9] | herbicidal effect rating, SAGPY [4, 6] | herbicidal effect rating, SAGPY [4, 7] | herbicidal effect rating, SAGPY [4, 8] | herbicidal effect rating, SAGPY [4, 9] | herbicidal effect rating ORYSAT ([5]; Rate 0.0320 kg/ha) | herbicidal effect rating ORYSAT ([5]; Rate 0.0620 kg/ha) | herbicidal effect rating ORYSAT ([5]; Rate 0.1250 kg/ha) | herbicidal effect rating ORYSAT ([5]; Rate 0.2500 kg/ha) | further results |
| --- | --- | --- | --- | --- | --- | --- | --- | --- | --- | --- | --- | --- | --- | --- | --- | --- | --- | --- | --- | --- | --- |
| Cn1c(C(F)(F)F)cc(=O)n(-c2ccc3snc(C(=O)CCl)c3c2)c1=O [Example 338, 2,4(1H,3H)-Pyrimidinedione, 3-[3-(chloroacetyl)-1,2-benzisothiazol-5-yl]-1-methyl-6-(trifluoromethyl)-] | 2.0 | 2.0 | 4.0 | 9.0 | 3.0 | 3.0 | 3.0 | 8.0 | 0.0 | 0.0 | 0.0 | 5.0 | 0.0 | 2.0 | 2.0 | 5.0 | 0.0 | 0.0 | 3.0 | 6.0 | – |
| C=CCOC(C)c1nsc2ccc(-n3c(=O)cc(C(F)(F)F)n(C)c3=O)cc12 (stereo not shown) [Example 351, 2,4(1H,3H)-Pyrimidinedione, 3-{3-[1-(allyloxy)ethyl]-1,2-benzisothiazol-5-yl}-1-methyl-6-(trifluoromethyl)-] | – | – | – | – | – | – | – | – | – | – | – | – | – | – | – | – | 7.0 | 7.0 | 7.0 | 9.0 | herbicidal effect rating, ECHORC [1, 10]: 5.0; herbicidal effect rating, ECHORC [1, 11]: 6.0; herbicidal effect rating, ECHORC [1, 12]: 6.0; herbicidal effect rating, ECHORC [1, 13]: 7.0; herbicidal effect rating, CYPIR [2, 10]: 6.0; herbicidal effect rating, CYPIR [2, 11]: 7.0; herbicidal effect rating, CYPIR [2, 12]: 7.0; herbicidal effect rating, CYPIR [2, 13]: 9.0; herbicidal effect rating, CYPSE [3, 10]: 0.0; herbicidal effect rating, CYPSE [3, 11]: 6.0; herbicidal effect rating, CYPSE [3, 12]: 6.0; herbicidal effect rating, CYPSE [3, 13]: 8.0; herbicidal effect rating, SAGPY [4, 10]: 5.0; herbicidal effect rating, SAGPY [4, 11]: 6.0; herbicidal effect rating, SAGPY [4, 12]: 7.0; herbicidal effect rating, SAGPY [4, 13]: 7.0 |
| COC(=O)C(C)Oc1ccc(OC)cc1-c1nsc2ccc(-n3c(=O)cc(C(F)(F)F)n(C)c3=O)cc12 (stereo not shown) [Example 348, Propionic acid, 2-{2-{5-[3,6-dihydro-3-methyl-2,6-dioxo-4-(trifluoromethyl)-1(2H)-pyrimidinyl]-1,2-benzisothiazol-3-yl}-4-methoxyphenoxy}-, methyl ester] | 6.0 | 6.0 | 7.0 | 9.0 | 0.0 | 0.0 | 6.0 | 9.0 | 0.0 | 0.0 | 0.0 | 0.0 | 4.0 | 6.0 | 7.0 | 9.0 | 2.0 | 3.0 | 4.0 | 5.0 | – |
| Cn1c(C(F)(F)F)cc(=O)n(-c2ccc3snc(C(=O)NS(=O)(=O)CCl)c3c2)c1=O [Example 334, 1,2-Benzisothiazole-3-carboxamide, N-[(chloromethyl)sulfonyl]-5-[3,6-dihydro-3-methyl-2,6-dioxo-4-(trifluoromethyl)-1(2H)-pyrimidinyl]-] | 0.0 | 0.0 | 0.0 | 3.0 | 3.0 | 5.0 | 6.0 | 6.0 | 0.0 | 0.0 | 2.0 | 2.0 | 0.0 | 0.0 | 4.0 | 4.0 | 0.0 | 0.0 | 3.0 | 3.0 | – |
| Cn1c(C(F)(F)F)cc(=O)n(-c2ccc3snc(C(C)(Br)Br)c3c2)c1=O [Example 340, 2,4(1H,3H)-Pyrimidinedione, 3-[3-(1,1-dibromoethyl)-1,2-benzisothiazol-5-yl]-1-methyl-6-(trifluoromethyl)-] | 5.0 | 6.0 | 9.0 | 9.0 | 2.0 | 5.0 | 7.0 | 9.0 | 3.0 | 3.0 | 6.0 | 7.0 | 4.0 | 4.0 | 5.0 | 7.0 | 5.0 | 6.0 | 7.0 | 9.0 | – |

From patent EP0908457B1, “3-(1,2-benzisothiazol- and isoxazol-5-Y1)-2,4(1H,3H)-pyrimidinedione or thione and 3-(1,2-benzisothiazol- and isoxazol-5-y1)-4(3H)-pyrimidinone or thione herbicidal agents” (BASF AKTIENGESELLSCHAFT, priority 1997, dated 1999)
